According to patent US20240254220A1, “COMBINED THERAPY USING ANTI-CD300C ANTIBODY” (CentricsBio, Inc., priority 2021, published 2024):

Tests used:
A549 cells = test: A549 growth inhibition by chemotherapeutic agents (concentration selection); format: cell-based, human; conditions: A549, serial dilutions, 5 days, CCK-8
Description: First, sorafenib was dissolved in dimethyl sulfoxide.
First, gemcitabine was dissolved in dimethyl sulfoxide.
First, paclitaxel was dissolved in […].

[1] = test system: A549 (human lung cancer cell line); test: A549 cell proliferation analysis, anti-CD300c antibody with chemotherapeutic agent; format: cell-based; conditions: 5 days
Description: In order to identify the cancer cell growth inhibitory effect by combined treatment with an anti-CD300c monoclonal antibody and sorafenib, cell proliferation analysis was performed using A549 (human lung cancer cell line). Into a 96-well plate, 20,000 cancer cells were inoculated and treated with 10 ug/mL anti-CD300c monoclonal antibody and 9 μM sorafenib, followed by incubation for 5 days. After the incubation, 10 μL of CCK-8 (DOJINDO) was added to each well, followed by incubation for 4 hours, and the absorbance was measured at 450 nm.
In order to identify the cancer cell growth inhibitory effect by combined treatment with an anti-CD300c monoclonal antibody and gemcitabine, cell proliferation analysis was performed using A549 (human lung cancer cell line). The cells were treated with the anti-CD300c antibody in combination with 1.9 μM gemcitabine for 5 days, and then 10 μL of CCK-8 (DOJINDO) was added to each well, followed by incubation for 4 hours, and the absorbance was measured at 450 nm.
In order to identify the cancer cell growth inhibitory effect by combined treatment with an anti-CD300c monoclonal antibody and paclitaxel, cell proliferation analysis was performed using A549 (human lung cancer cell line). The cells were treated with the anti-CD300c monoclonal antibody in combination with paclitaxel and incubated for 5 days. Thereafter, 10 μL of CCK-8 (DOJINDO) was added to each well, followed by incubation for 4 hours, and the absorbance was measured at 450 nm.

[2] = test system: MKN45, IM95, HT-29, A549, HCT116, MDA-MB-231, HepG2 cancer cell lines; test: Cancer cell apoptosis resistance (rapamycin, Annexin V / PI fluorescence); format: cell-based, human; conditions: 8 hours treatment, then rapamycin 48 hours
Excerpt: (§1) In order to identify whether the combined treatment with an anti-CD300c monoclonal antibody and a chemotherapeutic agent can inhibit cancer cell apoptosis resistance, MKN45 (human gastric cancer cell line), IM95 (human gastric cancer cell line), HT-29 (human colon cancer cell line), A549 (human lung cancer cell line), HCT116 (human colon cancer cell line), MDA-MB-231 (human breast cancer cell line), and HepG2 (human liver cancer cell line) were used. Each type of cancer cells were inoculated at 1×10^4 into a 96-well plate and incubated for 16 hours. The incubated cells were treated with an anti-CD300c monoclonal antibody and a chemotherapeutic agent in combination for 8 hours, and then treated with rapamycin for 48 hours. The degree of survival of cancer cells was identified by fluorescence analysis using Annexin V and propidium iodide (PI).
as §1, with “gemcitabine” for “a chemotherapeutic agent”, “The incubated cells were treated with an anti-CD300c monoclonal antibody and a chemotherapeutic agent in combination for 8 hours, and then treated with rapamycin for 48 hours.” left out
In order to identify whether the combined treatment with an anti-CD300c monoclonal antibody and paclitaxel can inhibit cancer cell apoptosis resistance, MKN45 (human gastric cancer cell line), IM95 (human gastric cancer cell line), HT-29 (human colon cancer cell line), A549 (human lung cancer cell line), HCT116 (human colon cancer cell line), MDA-MB-231 (human breast cancer cell line), and HepG2 (human liver cancer cell line) were used. […] The degree of survival of cancer cells was identified by fluorescence analysis using Annexin V and propidium iodide (PI).

[3] = test system: MKN45, IM95, HT-29, A549, HCT116, MDA-MB-231, HepG2 cancer cell lines; test: Cancer cell migration/infiltration (scratch wound); format: cell-based, human; conditions: 24 hours
Excerpt: (§2) In order to identify the cancer cell migration/infiltration inhibitory effect by the combined treatment with an anti-CD300c monoclonal antibody and sorafenib, MKN45 (human gastric cancer cell line), IM95 (human gastric cancer cell line), HT-29 (human colon cancer cell line), A549 (human lung cancer cell line), HCT116 (human colon cancer cell line), MDA-MB-231 (human breast cancer cell line), and HepG2 (human liver cancer cell line) were used. Into a 6-well plate, 1×10^5 cancer cells were inoculated and incubated for 16 hours, and then each well was wounded by scratching with a pipette tip. The detached cells were removed by washing with medium, and then treated with an anti-CD300c monoclonal antibody for 8 hours. Thereafter, observation was performed for 24 hours. On the basis of the area of the wound formed by scratching with the pipette tip, the migration distance of cancer cells was measured, and this distance was calculated as a percentage (%) to identify the degree of migration inhibition.
as §2, with “migration/invasion” for “migration/infiltration”, “gemcitabine, MKN45,” for “sorafenib, MKN45 (human gastric cancer cell line),”, “inhibition. […]” for “inhibition.”

[4] = test system: CT26 cells (mouse colon cancer cell line); test: In vivo anticancer effect in huCD34-NSG mice bearing CT26 cells; design: species or system humanized mouse models (huCD34-NSG mice); conditions: antibody 25 mg/kg, chemotherapeutic agents 10 mg/kg, i.p. twice a week, four times
Description: In order to identify the anticancer effect under in vivo conditions by the combined treatment with an anti-CD300c monoclonal antibody and a chemotherapeutic agent, human solid tumor xenograft models were prepared by subcutaneous injection of 1×10^6 CT26 cells (mouse colon cancer cell line) to humanized mouse models (huCD34-NSG mice). From 3 days after the administration of cancer cells, the mice were divided into a group administered 25 mg/kg anti-CD300c monoclonal antibody alone, groups administered the chemotherapeutic agents sorafenib, gemcitabine, and paclitaxel at 10 mg/kg for each, groups administered an anti-CD300c monoclonal antibody and chemotherapeutic agents, and a non-administered group. After the intraperitoneal administration with the anti-CD300c monoclonal antibody and each of the chemotherapeutic agents alone or in combination twice a week, a total of four times, the solid tumor tissue was isolated from the mice to measure the size thereof to identify the therapeutic effect of the anti-CD300c monoclonal antibody alone and the effects of the combined administration with existing chemotherapeutic agents.

CNC(=O)c1cc(Oc2ccc(NC(=O)Nc3ccc(Cl)c(C(F)(F)F)c3)cc2)ccn1 [sorafenib]
cancer cell growth inhibitory effect (A549 cells): concentration-dependent cancer cell growth inhibitory effect | inhibition at 9 µM ([1]; Homo sapiens, 120 h, A549, antibody 10 ug/mL, sorafenib 9 μM, read-out: cancer cell growth inhibitory rate): 45% | increase in MFI compared with hIgG1 isotype control group ([2]; sorafenib experiment): 21% | degree of migration inhibition ([3]; sorafenib experiment): 32% | tumor inhibition rate [4]: 22%

CC(=O)O[C@H]1C(=O)[C@@]2(C)[C@H]([C@H](OC(=O)c3ccccc3)[C@]3(O)C[C@H](OC(=O)[C@H](O)[C@@H](NC(=O)c4ccccc4)c4ccccc4)C(C)=C1C3(C)C)[C@]1(OC(C)=O)CO[C@@H]1C[C@@H]2O [paclitaxel]
cancer cell growth inhibitory effect (A549 cells): concentration-dependent cancer cell growth inhibitory effect | cancer cell growth inhibitory rate ([1]; A549, paclitaxel experiment): 24% | increase in MFI compared with hIgG1 isotype control group ([2]; paclitaxel experiment): 19% | degree of migration inhibition ([3]; paclitaxel experiment): 20% | tumor inhibition rate [4]: 21%

Nc1ccn([C@@H]2O[C@H](CO)[C@@H](O)C2(F)F)c(=O)n1 [gemcitabine]
cancer cell growth inhibitory effect (A549 cells): concentration-dependent cancer cell growth inhibitory effect | inhibition at 1.9 µM ([1]; Homo sapiens, 120 h, A549, gemcitabine 1.9 μM, read-out: cancer cell growth inhibitory rate): 38% | increase in MFI compared with hIgG1 isotype control group ([2]; gemcitabine experiment): 21% | degree of migration inhibition ([3]; gemcitabine experiment): 28% | tumor inhibition rate [4]: 25%
